Measurements as given in patent US11925690B2, “Bifunctional molecules for targeting Rpn11” (AMPHISTA THERAPEUTICS LTD, priority 2018, dated 2024).

Tests used:
Type in all cases: cell-based
[1] = target: T1, Brd4 (L) (Homo sapiens, UniProt O60885); experiment: Time-dependent BET degradation, immunoblot; design: Dmax: dose or concentration left out as unconfirmed; settings: HeLa; for Abs. T1/2 / T1/2: 1 μM; for Abs. T1/2: time to deplete 50% of the protein relative to DMSO; for T1/2: time to reach 50% of the Dmax
T1 construct: endogenous in cells; host or cells: HEK293 (CRL-1573), HeLa (CCL-2)
Experimental: (§1) Immunoblotting. Proteins were separated by SDS-PAGE on NuPage 4-12% Bis-Tris gels, followed by transfer to Amersham Protran 0.45 NC nitrocellulose membrane (GE Healthcare) using wet transfer. Membranes were blocked using 5% w/v milk in Tris-buffered saline (TBS) with 0.1% Tween-20. Blots were probed (overnight at 4 °C) using anti-Brd2 (Abcam ab139690, 1:2,000 dilution), anti-Brd3 (Abcam ab50818, 1:500 dilution), and anti-Brd4 (Abcam ab128874, 1:1,000 dilution) primary antibodies, as appropriate. The next day, blots were washed with TBST and incubated (1 h at Room temperature) with anti-Tubulin hFAB-rhodamine (BioRad, 12004166) primary antibody, and either anti-rabbit IRDye 800CW (Licor 1:1,000 dilution) or anti-mouse IRDye 800CW (Licor 1:1,000 dilution) secondary antibody. Blots were developed using a Bio-Rad ChemiDoc MP Imaging System, and band quantification was performed using Image Studio software (LiCor). Band intensities were normalized to the tubulin loading control and reported as % of the average 0.1% DMSO vehicle intensity. Degradation data was plotted and analysed using Prism (Graphpad, version 8).
(§2) HEK293 (0.5×10^6) cells were seeded in standard 6-well plates (2 mL medium) overnight before treatment with compounds at 1 μM concentration, with a final DMSO concentration of 0.1% v/v. After incubation for the desired time (0-24 hrs), cells were washed with DPBS (Gibco) and lysed using 85 μL RIPA buffer (Sigma-Aldrich) supplemented with complete Mini EDTA-free protease inhibitor cocktail (Roche) and benzonase. Lysates were clarified by centrifugation (20000 g, 10 min, 4° C.) and the total protein content of the supernatant was quantified using a Bradford colorimetric assay. Samples were prepared using equal amounts of total protein and LDS sample buffer (Invitrogen). Band intensities were normalized to the tubulin loading control and reported as % of the average 0.1% DMSO vehicle intensity. Degradation data was plotted and analysed using Prism (Graphpad, version 8).
(§3) MZ1 and 11JQ17 were used at 1 μM (4 h) for positive and negative controls, respectively. […] T1/2 (h) is the time required to deplete 50% of the protein relative to DMSO.

[2] = target: T2, Brd4 (S) (Homo sapiens, UniProt O60885); experiment: Time-dependent BET degradation, immunoblot; design: Dmax: dose or concentration left out as unconfirmed; settings: HeLa; for Abs. T1/2 / T1/2: 1 μM; for Abs. T1/2: time to deplete 50% of the protein relative to DMSO; for T1/2: time to reach 50% of the Dmax
T2 construct: endogenous in cells; host or cells: HEK293 (CRL-1573), HeLa (CCL-2)
Experimental: as §1, §2, §3

[3] = system: MV4-11 cells; experiment: CellTiter-Glo anti-proliferative assay; settings: MV4-11, 72 h, 5 μM and below compound
Experimental: The anti-proliferative effects of representative compounds and other compounds was measured using the CellTiter-Glo assay (Promega). MV4-11 cells were incubated in a sterile, white, clear-bottomed 384-well cell-culture microplate (Greiner Bio-one), at 2× concentration in RPMI media and a volume of 25 μl. The next day, test compounds were serially diluted in RPMI media to 2× concentration, then added to cells to make a final volume of 50 μl. After a 72 h incubation 25 μl of CellTiter-Glo reagent was added to each well. Following 15 minute incubation the luminescence signal was read on a Pherastar FS. The final concentration of assay components are as follows: 3×10^5 cells/ml, 0.05% DMSO, 5 μM and below compound. Data (FIG. 8) was processed and dose-response curves generated using Prism 8 (Graphpad).

[4] = target: Brd3 (Homo sapiens, UniProt Q15059); experiment: Concentration-dependent BET degradation, immunoblot; design: endogenous in cells; host or cells: HEK293 (CRL-1573), HeLa (CCL-2); settings: 1 nM-10 μM
Experimental: as §1
as §2, with “HeLa (5×10^5) and HEK293” for “HEK293”, “(1×10^6)” for “(0.5×10^6)”, “the desired concentration (1 nM-10 μM),” for “1 μM concentration,”, “4 h treatment time,” for “incubation for the desired time (0-24 hrs),”, “cOmplete” for “complete”
MZ1 and 11JQ17 were used at 1 μM for positive and negative controls, respectively. […] For the table, Dmax: +(Dmax≤25%); ++(26%≤Dmax≤50%); +++(51%≤Dmax≤70%); ++++(71%≤DC50: A (DC50≤50 nM); B (51 nM≤DC50≤500 nM); C (501 nM≤DC50).

[5] = target: T3, Brd4 (Homo sapiens, UniProt O60885); experiment: Immunoblot analysis of Brd4 in HEK293 cells (prodrug activity, negative SAR); settings: HEK293, 1 μM, 4 h, n=3
T3 construct: immunoblot analysis of Brd4 following 4 h treatment of HEK293 cells; endogenous in cells; host or cells: HEK293 (CRL-1573)
Experimental: as §1, with “8). […]” for “8).”
HEK293 (1×10^6) cells incubated with DMSO, 1 μM 11JQ15 or 1 μM 11JQ17 for 4 h with a final DMSO concentration of 0.1% v/v. […] Degradation data was plotted and analysed using Prism (Graphpad, version 8), where bars are mean±SEM of three independent experiments.

Brd3, sequence (Q15059 whole entry): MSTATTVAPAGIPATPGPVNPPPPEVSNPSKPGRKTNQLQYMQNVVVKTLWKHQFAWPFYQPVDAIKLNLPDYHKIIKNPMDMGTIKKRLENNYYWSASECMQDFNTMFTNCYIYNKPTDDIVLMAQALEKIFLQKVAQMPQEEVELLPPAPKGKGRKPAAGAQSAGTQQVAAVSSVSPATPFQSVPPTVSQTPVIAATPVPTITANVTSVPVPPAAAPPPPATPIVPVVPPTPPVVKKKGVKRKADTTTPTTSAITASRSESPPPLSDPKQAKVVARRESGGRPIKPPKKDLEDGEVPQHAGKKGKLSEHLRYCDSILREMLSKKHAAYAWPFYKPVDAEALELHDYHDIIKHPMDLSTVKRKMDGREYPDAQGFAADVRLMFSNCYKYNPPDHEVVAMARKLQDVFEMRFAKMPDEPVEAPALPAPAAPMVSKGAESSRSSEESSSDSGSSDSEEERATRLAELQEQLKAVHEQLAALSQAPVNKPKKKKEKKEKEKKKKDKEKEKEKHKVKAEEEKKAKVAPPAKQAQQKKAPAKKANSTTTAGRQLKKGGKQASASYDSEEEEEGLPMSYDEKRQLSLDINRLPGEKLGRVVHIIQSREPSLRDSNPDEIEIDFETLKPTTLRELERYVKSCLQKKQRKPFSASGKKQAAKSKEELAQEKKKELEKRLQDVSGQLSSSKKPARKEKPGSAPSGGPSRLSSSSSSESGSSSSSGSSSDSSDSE

Structure (SMILES)	Dmax [1]	Abs. T1/2 [1]	T1/2 [1]	Dmax [2]	Abs. T1/2 [2]	T1/2 [2]	cytotoxicity profile / anti-proliferative effect (FIG. 8) [3]	DC50 ([4]; HEK293, Brd3, 4 h)	Dmax ([4]; HEK293, Brd3, 4 h)	DC50 ([4]; HeLa, Brd3, 4 h)	Dmax ([4]; HeLa, Brd3, 4 h)	Brd4 levels (FIG. 3) [5]
Cc1sc2c(c1C)C(c1ccc(Cl)cc1)=N[C@@H](CC(=O)NCCCCNC(=O)c1cc(S)c3ncc(C(=O)NCCc4nccs4)cc3c1)c1nnc(C)n1-2 [Example 11JQ7]	100%	2.4 h	2.3 h	100%	3.1 h	3 h	distinct from JQ1 and inactive 11JQ18	≥ 501 nM	≥ 71%	51 to 500 nM	≥ 71%	–
Cc1sc2c(c1C)C(c1ccc(Cl)cc1)=N[C@@H](CC(=O)NCCOCCNC(=O)c1cc(SC(=O)c3ccccc3)c3ncc(C(=O)NCCc4nccs4)cc3c1)c1nnc(C)n1-2 [Example 11JQ15]	90%	4.3 h	3.5 h	90%	3.3 h	2.8 h	–	51 to 500 nM	26 to 50%	51 to 500 nM	26 to 50%	significant depletion of Brd4 levels
Cc1sc2c(c1C)C(c1ccc(Cl)cc1)=N[C@@H](CC(=O)NCCCCNC(=O)c1cc(SC(=O)c3ccccc3)c3ncc(C(=O)NCCc4nccs4)cc3c1)c1nnc(C)n1-2 [Example 11JQ16]	–	–	–	–	–	–	distinct from JQ1 and inactive 11JQ18	≤ 50 nM	≥ 71%	≥ 501 nM	51 to 70%	–
